# Assay results as given in patent US9879243B2, “Culture medium for cell growth and transfection” (LIFE TECHNOLOGIES CORPORATION, priority 2001, dated 2018).
# Assays:
# CHO cells = experiment: Effect of replacement compounds on the growth of CHO cells in CD CHO medium without transferrin, three passages; type: cell-based, Chinese hamster; details: third passage
# Summary of the method: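 CHO cells seeded at 1×10^5 viable cells/mL in transferrin-free CD CHO medium, 37 °C, 8% CO2, subcultured every 4 days for three passages. Compounds tested alone or complexed with ferric chloride or ferrous sulfate at 25, 50 and 100 μM; growth as mean percentage of the 5 μg/mL holo-transferrin control at the third passage, duplicate cultures.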
# Sp2/0 cells = experiment: Effect of replacement compounds on the growth of Sp2/0 cells in CD Hybridoma medium without transferrin, three passages; type: cell-based; details: third passage
# 293 cells = experiment: β-galactosidase expression after transfection (pCMV-SPORT-β-gal, LIPOFECTAMINE 2000) of 293 cells in monolayer culture, 24-well plates; type: cell-based, human; details: Table 8, replacement compounds 25 μM in test media, 24 hrs post-transfection
# Procedure: When cultured in suspension, cells were split to 3×10^5 viable cells per ml at each passage. On the week of transfection cells were seeded at 3×10^5 viable cells per ml. After ˜48 hrs of growth (day 2) cells were vortexed for 30 seconds and counted and appropriate volumes used for transfection as described in procedures below.
# In addition, the base media comprises 2.4 g/L NaHCO3, 2.98 g/L Hepes, 4 mM L-glutamine and 3 ml/L PLURONIC F-68 (Invitrogen Corp., Carlsbad, Calif.).
# The osmolarity is adjusted to from about 275-310 mOsm, preferably about 280 mOsm and the pH is adjusted to from about 7.0 to about 7.45 preferably about 7.4 respectively.
# Three wells were set up for each treatment. A volume of media corresponding to 3×10^6 viable cells was centrifuged. The supernatant was removed and the cells re-suspended in 600 μl test media. Each well of a 24 well plate received 200 μl of the re-suspended cells.
# To prepare the nucleic acid for the transfection experiments, 93 μl test media+3 μl DNA+24 μl LIPOFECTAMINE 2000 were combined in a microfuge tube and complexed for 30 minutes. A 40 μl aliquot of complex was added to each well. 250 μl test media was added to each well five hours after addition of complex. The final cell concentration was 1×10^6 viable cells per well; the final DNA concentration was 1 μg per 1×10^6 viable cells and the final LIPOFECTAMINE 2000 concentration was 8 μl per 1×10^6 viable cells.
# 24 hrs post-transfection, samples were collected for β-galactosidase quantitation. The contents of duplicate wells were pooled (i.e. ˜2×10^6 cells for the assay) for each sample and transferred to a microfuge tube. The cells were centrifuged, the supernatant was removed and the cells were re-suspended in 1 ml of D-PBS. The cells were pelleted a second time and re-suspended in 1 ml of D-PBS. The samples were then stored at −70° C. Prior to the assay for β-galactosidase, samples were freeze-thawed a total of five times.
# 293 cells were grown in monolayer culture in the presence of the various replacement compounds indicated and transfection experiments performed as described above. The results are shown in Table 8 and the values are β-galactosidase activity expressed as nanograms of β-galactosidase per 2×10^6 cells. A comparison was made between the transfection efficiency of DNA complexes formed in D-MEM medium and DNA complexes formed in test medium. […]
# For cells transfected in 24-well plates, cells densities used were 1×10^6 viable cells per well.
# [1] = 25 μM, control 5 μg/mL human holo-transferrin
Compound,mean percentage of control growth (CHO cells; [1]),mean percentage of control growth (CHO cells; 50 μM),mean percentage of control growth (CHO cells; 100 μM),mean percentage of control growth (Sp2/0 cells; [1]),mean percentage of control growth (Sp2/0 cells; 50 μM),mean percentage of control growth (Sp2/0 cells; 100 μM),"β-galactosidase activity; D-MEM used for complexing, Test media to re-suspend cells (293 cells)",β-galactosidase activity; Test Media used for complexing and to re-suspend cells (293 cells)
CCc1occc(=O)c1O [2-Ethyl-3-Hydroxy-4-Pyrone],9 percentage of control growth,60 percentage of control growth,113 percentage of control growth,0 percentage of control growth,75 percentage of control growth,116 percentage of control growth,378 nanograms of β-galactosidase per 2×10^6 cells,1827 nanograms of β-galactosidase per 2×10^6 cells
Diethylenetriamine Penta-Acetic Acid•Ferrous Sulfate,135 percentage of control growth,137 percentage of control growth,147 percentage of control growth,54 percentage of control growth,90 percentage of control growth,91 percentage of control growth,234 nanograms of β-galactosidase per 2×10^6 cells,720 nanograms of β-galactosidase per 2×10^6 cells
